Test results taken from US11446287B2, “Compounds and methods for EP300 or CBP modulation and indications therefor” (Opna Immuno-Oncology SA, priority 2019, dated 2022).

What follows are compounds tested against T1, Recombinant human EP300 containing the bromodomain (EP300-BD (1040-1161)) (Homo sapiens, UniProt Q09472) (assay: EP300 Alphascreen binding assay).
T1 construct: Recombinant human EP300 bromodomain (EP300-BD (1040-1161)); made in house; host or cells: E. coli BL21-CodonPlus (DE3), modified pET vector
T1 sequence (Q09472 1040-1161): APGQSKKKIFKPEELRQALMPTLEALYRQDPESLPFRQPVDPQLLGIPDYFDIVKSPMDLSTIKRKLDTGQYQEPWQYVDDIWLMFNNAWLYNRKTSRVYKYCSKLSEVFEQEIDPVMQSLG
Method in brief: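 Displacement of a biotinylated acetyl-K56 histone H3 peptide from the N-His bromodomain construct (1040-1161) measured by AlphaScreen proximity, beads at 7.5 μg/ml final, read 60 min after addition. Protein, peptide and compound first incubated 1 h at room temperature, pH 7.5 HEPES buffer; IC50 by four-parameter logistic fit.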

SMILES	IC50
Cc1noc(C)c1-c1cnc2c(c1)c(-c1cnn(C(C)(C)C(=O)O)c1)cn2C(c1ccccn1)C1CCCC1 (stereo not shown) [P-0035, 2-(4-(1-(cyclopentyl(pyridin-2-yl)methyl)-5-(3,5-dimethylisoxazol-4-yl)-1H-pyrrolo[2,3-b]pyridin-3-yl)-1H-pyrazol-1-yl)-2-methylpropanoic acid]	0.1 to 1000 nM
Cc1noc(C)c1-c1cnc2c(c1)c(-c1cnn(CC(=O)O)c1)cn2C(c1ccccn1)C1CCCC1 (stereo not shown) [P-0036, 2-(4-(1-(cyclopentyl(pyridin-2-yl)methyl)-5-(3,5-dimethylisoxazol-4-yl)-1H-pyrrolo[2,3-b]pyridin-3-yl)-1H-pyrazol-1-yl)acetic acid]	0.1 to 1000 nM
Cc1noc(C)c1-c1cnc2c(c1)c(-c1cnn(CC(C)(C)O)c1)cn2C(c1ccccn1)C1CCCC1 (stereo not shown) [P-0037, 1-(4-(1-(cyclopentyl(pyridin-2-yl)methyl)-5-(3,5-dimethylisoxazol-4-yl)-1H-pyrrolo[2,3-b]pyridin-3-yl)-1H-pyrazol-1-yl)-2-methylpropan-2-ol]	1000 to 8000 nM
Cc1noc(C)c1-c1cnc2c(c1)c(-c1ccc(C(=O)O)c(Cl)c1)cn2C(c1ccccn1)C1CCCC1 (stereo not shown) [P-0038, 2-chloro-4-(1-(cyclopentyl(pyridin-2-yl)methyl)-5-(3,5-dimethylisoxazol-4-yl)-1H-pyrrolo[2,3-b]pyridin-3-yl)benzoic acid]	0.1 to 1000 nM
COC(=O)c1cc(-c2cn(C(c3ccccn3)C3CCCC3)c3ncc(-c4c(C)noc4C)cc23)ccn1 (stereo not shown) [P-0040, methyl 4-(1-(cyclopentyl(pyridin-2-yl)methyl)-5-(3,5-dimethylisoxazol-4-yl)-1H-pyrrolo[2,3-b]pyridin-3-yl)picolinate]	0.1 to 1000 nM
Cc1noc(C)c1-c1cnc2c(c1)c(-c1ccnc(C(=O)O)c1)cn2C(C1CC1)C1CC1 [P-0041, 4-(1-(dicyclopropylmethyl)-5-(3,5-dimethylisoxazol-4-yl)-1H-pyrrolo[2,3-b]pyridin-3-yl)picolinic acid]	0.1 to 1000 nM
Cc1noc(C)c1-c1cnc2c(c1)c(-c1ccnc(C(=O)O)c1)cn2Cc1ccccc1 [P-0042, 4-(1-benzyl-5-(3,5-dimethylisoxazol-4-yl)-1H-pyrrolo[2,3-b]pyridin-3-yl)picolinic acid]	0.1 to 1000 nM
Cc1noc(C)c1-c1cnc2c(c1)c(-c1ccnc(C(=O)O)c1)cn2C(c1ccccn1)C1CCC1 (stereo not shown) [P-0043, 4-(1-(cyclobutyl(pyridin-2-yl)methyl)-5-(3,5-dimethylisoxazol-4-yl)-1H-pyrrolo[2,3-b]pyridin-3-yl)picolinic acid]	0.1 to 1000 nM
Cc1noc(C)c1-c1cnc2c(c1)c(-c1ccnc(C(=O)O)c1)cn2Cc1ccccn1 [P-0044, 4-(5-(3,5-dimethylisoxazol-4-yl)-1-(pyridin-2-ylmethyl)-1H-pyrrolo[2,3-b]pyridin-3-yl)picolinic acid]	0.1 to 1000 nM
Cc1noc(C)c1-c1cnc2c(c1)c(-c1ccnc(C(=O)O)c1)cn2CC1CC1 [P-0045, 4-(1-(cyclopropylmethyl)-5-(3,5-dimethylisoxazol-4-yl)-1H-pyrrolo[2,3-b]pyridin-3-yl)picolinic acid]	0.1 to 1000 nM
COC(=O)c1cc(-c2cn(C(c3ccccn3)C3CCC3)c3ncc(-c4c(C)noc4C)cc23)ccn1 (stereo not shown) [P-0046, methyl 4-(1-(cyclobutyl(pyridin-2-yl)methyl)-5-(3,5-dimethylisoxazol-4-yl)-1H-pyrrolo[2,3-b]pyridin-3-yl)picolinate]	0.1 to 1000 nM
COc1cc(C(=O)O)ccc1-c1cn([C@@H](C)c2ccccn2)c2ncc(-c3c(C)noc3C)cc12 [P-0047, (S)-4-(5-(3,5-dimethylisoxazol-4-yl)-1-(1-(pyridin-2-yl)ethyl)-1H-pyrrolo[2,3-b]pyridin-3-yl)-3-methoxybenzoic acid]	0.1 to 1000 nM
Cc1noc(C)c1-c1cnc2c(c1)c(-c1cccc(C(=O)O)c1)cn2Cc1ccccc1 [P-0048, 3-(1-benzyl-5-(3,5-dimethylisoxazol-4-yl)-1H-pyrrolo[2,3-b]pyridin-3-yl)benzoic acid]	0.1 to 1000 nM
